Converted amounts (≈) assume the structure as drawn.
What was measured:
Assay type in all cases: functional
Conditions in all cases: time 20-24 hrs
Staphylococcus aureus [1] = assay: Antimicrobial activity against Staphylococcus aureus ATCC 25923 assessed as inhibition of visible growth measured after 20 to 24 hrs incubation by CLSI method
Staphylococcus aureus [2] = assay: Antimicrobial activity against antibiotic-resistant Staphylococcus aureus ATCC BAA-2312 assessed as inhibition of visible growth measured after 20 to 24 hrs incubation by CLSI method
Staphylococcus aureus [3] = assay: Antimicrobial activity against antibiotic-resistant Staphylococcus aureus ATCC 33591 assessed as inhibition of visible growth measured after 20 to 24 hrs incubation by CLSI method
Staphylococcus aureus [4] = assay: Antimicrobial activity against antibiotic-resistant Staphylococcus aureus ATCC 33592 assessed as inhibition of visible growth measured after 20 to 24 hrs incubation by CLSI method
Staphylococcus aureus [5] = assay: Antimicrobial activity against antibiotic-resistant Staphylococcus aureus ATCC 700699 assessed as inhibition of visible growth measured after 20 to 24 hrs incubation by CLSI method
[6] = test system: Staphylococcus epidermidis; assay: Antimicrobial activity against antibiotic-resistant Staphylococcus epidermidis ATCC 700296 assessed as inhibition of visible growth measured after 20 to 24 hrs incubation by CLSI method
Enterococcus faecalis [7] = assay: Antimicrobial activity against antibiotic-susceptible Enterococcus faecalis ATCC 29212 assessed as inhibition of visible growth measured after 20 to 24 hrs incubation by CLSI method
Enterococcus faecalis [8] = assay: Antimicrobial activity against antibiotic-resistant Enterococcus faecalis ATCC 51299 assessed as inhibition of visible growth measured after 20 to 24 hrs incubation by CLSI method
Enterococcus faecium = assay: Antimicrobial activity against antibiotic-resistant Enterococcus faecium ATCC 700221 assessed as inhibition of visible growth measured after 20 to 24 hrs incubation by CLSI method
Bacillus subtilis = assay: Antimicrobial activity against antibiotic-resistant Bacillus subtilis ATCC 6623 assessed as inhibition of visible growth measured after 20 to 24 hrs incubation by CLSI method

| Compound | MIC (Staphylococcus aureus [1]) [µg/mL] | MIC (Staphylococcus aureus [2]) [µg/mL] | MIC (Staphylococcus aureus [3]) [µg/mL] | MIC (Staphylococcus aureus [4]) [µg/mL] | MIC (Staphylococcus aureus [5]) [µg/mL] | MIC [6] [µg/mL] | MIC (Enterococcus faecalis [7]) [µg/mL] | MIC (Enterococcus faecalis [8]) [µg/mL] | MIC (Enterococcus faecium) [µg/mL] | MIC (Bacillus subtilis) [µg/mL] |
| --- | --- | --- | --- | --- | --- | --- | --- | --- | --- | --- |
| O=C(O)c1ccc(-n2cc(CNc3cccc(C(F)(F)F)c3)c(-c3ccc(F)cc3)n2)cc1 | 8 (≈ 17.6 µM) | 4 (≈ 8.78 µM) | 2 (≈ 4.39 µM) | 8 (≈ 17.6 µM) | 4 (≈ 8.78 µM) | 8 (≈ 17.6 µM) | 16 (≈ 35.1 µM) | 16 (≈ 35.1 µM) | 8 (≈ 17.6 µM) | 2 (≈ 4.39 µM) |
| Cc1cc(NCc2cn(-c3ccc(C(=O)O)cc3)nc2-c2ccc(F)cc2)ccc1F | 16 (≈ 38.1 µM) | 16 (≈ 38.1 µM) | 8 (≈ 19.1 µM) | 16 (≈ 38.1 µM) | 8 (≈ 19.1 µM) | 32 (≈ 76.3 µM) | > 32 | > 32 | > 32 | 4 (≈ 9.54 µM) |
| O=C(O)c1ccc(-n2cc(CNc3ccc(F)c(Cl)c3)c(-c3ccc(F)cc3)n2)cc1 | 8 (≈ 18.2 µM) | 4 (≈ 9.09 µM) | 2 (≈ 4.55 µM) | 8 (≈ 18.2 µM) | 8 (≈ 18.2 µM) | 32 (≈ 72.8 µM) | > 32 | > 32 | 16 (≈ 36.4 µM) | 2 (≈ 4.55 µM) |
| O=C(O)c1ccc(-n2cc(CNc3cc(Cl)cc(Cl)c3)c(-c3ccc(F)cc3)n2)cc1 | 1 (≈ 2.19 µM) | 1 (≈ 2.19 µM) | 1 (≈ 2.19 µM) | 1 (≈ 2.19 µM) | 2 (≈ 4.38 µM) | 2 (≈ 4.38 µM) | 4 (≈ 8.77 µM) | 4 (≈ 8.77 µM) | 4 (≈ 8.77 µM) | 0.5 (≈ 1.1 µM) |
| O=C(O)c1ccc(-n2cc(CNc3ccc(F)c(F)c3F)c(-c3ccc(F)c(F)c3)n2)cc1 | > 32 | 8 (≈ 17.4 µM) | 2 (≈ 4.35 µM) | > 32 | > 32 | > 32 | > 32 | > 32 | > 32 | 2 (≈ 4.35 µM) |
| O=C(O)c1ccc(-n2cc(CNc3cc(F)cc(C(F)(F)F)c3)c(-c3ccc(F)cc3)n2)cc1 | 2 (≈ 4.22 µM) | 2 (≈ 4.22 µM) | 2 (≈ 4.22 µM) | 4 (≈ 8.45 µM) | 2 (≈ 4.22 µM) | 4 (≈ 8.45 µM) | 16 (≈ 33.8 µM) | 16 (≈ 33.8 µM) | 8 (≈ 16.9 µM) | 4 (≈ 8.45 µM) |
| O=C(O)c1ccc(-n2cc(CNc3ccc(Br)c(C(F)(F)F)c3)c(-c3ccc(F)cc3)n2)cc1 | 2 (≈ 3.74 µM) | 1 (≈ 1.87 µM) | 0.5 (≈ 0.936 µM) | 2 (≈ 3.74 µM) | 1 (≈ 1.87 µM) | 4 (≈ 7.49 µM) | 4 (≈ 7.49 µM) | 4 (≈ 7.49 µM) | 2 (≈ 3.74 µM) | 1 (≈ 1.87 µM) |
| O=C(O)c1ccc(-n2cc(CNc3ccc(Br)cc3)c(-c3ccc(F)c(F)c3)n2)cc1 | > 32 | > 32 | > 32 | > 32 | > 32 | > 32 | > 32 | > 32 | > 32 | > 32 |
| O=C(O)c1ccc(-n2cc(CNc3ccc(F)cc3)c(-c3ccc(F)c(F)c3)n2)cc1 | > 32 | > 32 | > 32 | > 32 | > 32 | > 32 | > 32 | > 32 | > 32 | > 32 |
| O=C(O)c1ccc(-n2cc(CNc3ccc(Br)cc3)c(-c3ccc(F)cc3)n2)cc1 | 8 (≈ 17.2 µM) | 16 (≈ 34.3 µM) | 4 (≈ 8.58 µM) | > 32 | 16 (≈ 34.3 µM) | > 32 | > 32 | > 32 | > 32 | 4 (≈ 8.58 µM) |
| O=C(O)c1ccc(-n2cc(CNc3cc(C(F)(F)F)cc(C(F)(F)F)c3)c(-c3ccc(F)c(F)c3)n2)cc1 | 1 (≈ 1.85 µM) | 0.5 (≈ 0.924 µM) | 0.5 (≈ 0.924 µM) | 1 (≈ 1.85 µM) | 1 (≈ 1.85 µM) | 4 (≈ 7.39 µM) | 2 (≈ 3.69 µM) | 2 (≈ 3.69 µM) | 2 (≈ 3.69 µM) | 0.5 (≈ 0.924 µM) |
| O=C(O)c1ccc(-n2cc(CNc3cccc(Br)c3)c(-c3ccc(F)cc3)n2)cc1 | 8 (≈ 17.2 µM) | 8 (≈ 17.2 µM) | 4 (≈ 8.58 µM) | 16 (≈ 34.3 µM) | 8 (≈ 17.2 µM) | 16 (≈ 34.3 µM) | 32 (≈ 68.6 µM) | 32 (≈ 68.6 µM) | 16 (≈ 34.3 µM) | 4 (≈ 8.58 µM) |
| O=C(O)c1ccc(-n2cc(CNc3ccc(Cl)c(C(F)(F)F)c3)c(-c3ccc(F)cc3)n2)cc1 | 2 (≈ 4.08 µM) | 2 (≈ 4.08 µM) | 1 (≈ 2.04 µM) | 2 (≈ 4.08 µM) | 1 (≈ 2.04 µM) | 4 (≈ 8.17 µM) | 8 (≈ 16.3 µM) | 8 (≈ 16.3 µM) | 2 (≈ 4.08 µM) | 1 (≈ 2.04 µM) |
| O=C(O)c1ccc(-n2cc(CNc3ccc(F)c(F)c3)c(-c3ccc(F)cc3)n2)cc1 | > 32 | > 32 | > 32 | > 32 | 16 (≈ 37.8 µM) | > 32 | > 32 | > 32 | > 32 | 16 (≈ 37.8 µM) |

Reference: ChEMBL document CHEMBL5365500, “Development and Antibacterial Properties of 4-[4-(Anilinomethyl)-3-phenylpyrazol-1-yl]benzoic Acid Derivatives as Fatty Acid Biosynthesis Inhibitors” (J Med Chem, 2023)
